For this assay, the system named is HIV-1 strain 92HT599. Kind of assay: Antiviral activity, p24 estimation in HIV-1 92HT599 infected MT2 cells. The class given is cell-based. Particulars: ~96 hours. Here is the method:
MT2 cells were infected with HIV-1 strain 92HT599 (10 TCID 50/30000 cells). The infected cells were plated at the concentration of ˜30,000 cells per well in 96 well plate. Test compound was added to the micro plate in defined format with the final concentration of DMSO (vehicle) is not more than 1%. Incubation was carried out in CO2 incubator for ˜96 hours for viral infection. At the end of incubation period an aliquot from each well was taken for p24 estimation. The quantitation of p24 is an index for antiviral activity of the compound. Percent inhibition was calculated with reference to control values (vehicle controls). P-24 estimation was carried out using Advance biosciences kit as per the procedure detailed by supplier.

The mark [1] stands for this setting: Human immunodeficiency virus 1, 0% serum, read-out: 92HT599-Antiviral activity IC50 (nM) 0%.
Setting [2] is: Human immunodeficiency virus 1, 40% serum, read-out: 92HT599-Antiviral activity IC50 (nM) 40%.

We go through twelve molecules from US10669305B2, “C-3 novel triterpenone with C-28 urea derivatives as HIV inhibitors” (Hetero Labs Limited, priority 2015, dated 2020).

The structures appear in SMILES notation. Structures can show the parent of a compound that is named as a salt. Where two headings read alike, the source gives them in different places.

By IC50 is commonly meant the concentration that gives 50% inhibition. For `Cc1nnc(C(C)C)n1CCN1CCN(C(=O)N[C@@]23CC[C@]4(C)[C@H](CC[C@@H]5[C@@]6(C)CC[C@H](OC(=O)[C@H]7C[C@@H](C(=O)O)C7(C)C)C(C)(C)[C@@H]6CC[C@]54C)C2=C(C(C)C)C(=O)C3)CC1` [Example 12, (1R,3S)-3-((((3aR,5aR,5bR,7aR,9S,11aR,11bR,13aS)-1-isopropyl-3a-(4-(2-(3-isopropyl-5-methyl-4H-1,2,4-triazol-4-yl)ethyl)piperazine-1-carboxamido)-5a,5b,8,8,11a-pentamethyl-2-oxo-3,3a,4,5,5a,5b,6,7,7a,8,9,10,11,11a,11b,12,13,13a-octadecahydro-2H-cyclopenta[a]chrysen-9-yl)oxy)carbonyl)-2,2-dimethycyclobutane-1-carboxylic acid], the IC50 reads like this: under setting [1], over 10 nM; under setting [2], over 50 nM.

`CC(C)C1=C2[C@H]3CC[C@@H]4[C@@]5(C)CC[C@H](OC(=O)[C@H]6C[C@@H](C(=O)O)C6(C)C)C(C)(C)[C@@H]5CC[C@@]4(C)[C@]3(C)CC[C@@]2(NC(=O)N(CCN(C)C)CC2(c3ccc(Cl)cc3)CC2)CC1=O` [Example 6, (1R,3S)-3-((((3aR,5aR,5bR,7aR,9S,11aR,11bR,13aS)-3a-(3-((1-(4-chlorophenyl)cyclopropyl)methyl)-3-(2-(dimethylamino)ethyl)ureido)-1-isopropyl-5a,5b,8,8,11a-pentamethyl-2-oxo-3,3a,4,5,5a,5b,6,7,7a,8,9,10,11,11a,11b,12,13,13a-octadecahydro-2H-cyclopenta[a]chrysen-9-yl)oxy)carbonyl)-2,2-dimethylcyclobutane-1-carboxylic acid]: the IC50 runs as follows: under setting [1], under 5 nM; under setting [2], 30 to 50 nM.

`CC(C)C1=C2[C@H]3CC[C@@H]4[C@@]5(C)CC[C@H](OC(=O)[C@H]6C[C@@H](C(=O)O)C6(C)C)C(C)(C)[C@@H]5CC[C@@]4(C)[C@]3(C)CC[C@@]2(NC(=O)NC(C)(C)c2ncc(-c3ccccc3)[nH]2)CC1=O` [Example 10, (1R,3S)-3-((((3aR,5aR,5bR,7aR,9S,11aR,11bR,13aS)-1-isopropyl-5a,5b,8,8,11a-pentamethyl-2-oxo-3a-(3-(2-(5-phenyl-1H-imidazol-2-yl)propan-2-yl)ureido)-3,3a,4,5,5a,5b,6,7,7a,8,9,10,11,11a,11b,12,13,13a-octadecahydro-2H-cyclopenta[a]chrysen-9-yl)oxy)carbonyl)-2,2-dimethylcyclobutane-1-carboxylic acid]: the half-inhibitory concentration (IC50) is under 5 nM under setting [1] and under 30 nM under setting [2].

As for `CC(C)C1=C2[C@H]3CC[C@@H]4[C@@]5(C)CC[C@H](OC(=O)[C@H]6C[C@@H](C(=O)O)C6(C)C)C(C)(C)[C@@H]5CC[C@@]4(C)[C@]3(C)CC[C@@]2(NC(=O)NC2(c3ccc(Cl)cc3)CC2)CC1=O` [Example 4, (1R,3S)-3-((((3aR,5aR,5bR,7aR,9S,11aR,11bR,13aS)-3a-(3-(1-(4-chlorophenyl)cyclopropyl)ureido)-1-isopropyl-5a,5b,8,8,11a-pentamethyl-2-oxo-3,3a,4,5,5a,5b,6,7,7a,8,9,10,11,11a,11b,12,13,13a-octadecahydro-2H-cyclopenta[a]chrysen-9-yl)oxy)carbonyl)-2,2-dimethylcyclobutane-1-carboxylic acid], the IC50 runs as follows: under setting [1], under 5 nM; under setting [2], over 50 nM.

Take `Cc1nnc(C(C)C)n1C1CC2CCC(C1)N2C(=O)N[C@@]12CC[C@]3(C)[C@H](CC[C@@H]4[C@@]5(C)CC[C@H](OC(=O)[C@H]6C[C@@H](C(=O)O)C6(C)C)C(C)(C)[C@@H]5CC[C@]43C)C1=C(C(C)C)C(=O)C2` (stereo partly drawn) [Example 8, (1R,3S)-3-((((3aR,5aR,5bR,7aR,9S,11aR,11bR,13aS)-1-isopropyl-3a-((1R,3S,5S)-3-(3-isopropyl-5-methyl-4H-1,2,4-triazol-4-yl)-8-azabicyclo[3.2.1]octane-8-carboxamido)-5a,5b,8,8,11a-pentamethyl-2-oxo-3,3a,4,5,5a,5b,6,7,7a,8,9,10,11,11a,11b,12,13,13a-octadecahydro-2H-cyclopenta[a]chrysen-9-yl)oxy)carbonyl)-2,2-dimethylcyclobutane-1-carboxylic acid]: the IC50 under setting [1] was 5.01 to 10 nM and the IC50 under setting [2] was over 50 nM.

For `CC(C)C1=C2[C@H]3CC[C@@H]4[C@@]5(C)CC[C@H](OC(=O)[C@H]6C[C@@H](C(=O)O)C6(C)C)C(C)(C)[C@@H]5CC[C@@]4(C)[C@]3(C)CC[C@@]2(NC(=O)NCc2ccc(Cl)cc2)CC1=O` [Example 7, (1R,3S)-3-((((3aR,5aR,5bR,7aR,9S,11aR,11bR,13aS)-3a-(3-(4-chlorobenzyl)ureido)-1-isopropyl-5a,5b,8,8,11a-pentamethyl-2-oxo-3,3a,4,5,5a,5b,6,7,7a,8,9,10,11,11a,11b,12,13,13a-octadecahydro-2H-cyclopenta[a]chrysen-9-yl)oxy)carbonyl)-2,2-dimethylcyclobutane-1-carboxylic acid], the IC50 under setting [1] is 5.01 to 10 nM and the IC50 under setting [2] is 30 to 50 nM.

On to `CC(C)C1=C2[C@H]3CC[C@@H]4[C@@]5(C)CC[C@H](OC(=O)[C@H]6C[C@@H](C(=O)O)C6(C)C)C(C)(C)[C@@H]5CC[C@@]4(C)[C@]3(C)CC[C@@]2(NC(=O)N2CCC[C@H]2c2ncc(-c3ccccc3)n2CCN(C)C)CC1=O` [Example 2, (1R,3S)-3-((((3aR,5aR,5bR,7aR,9S,11aR,11bR,13aS)-3a-((S)-2-(1-(2-(dimethylamino)ethyl)-5-phenyl-1H-imidazol-2-yl)pyrrolidine-1-carboxamido)-1-isopropyl-5a,5b,8,8,11a-pentamethyl-2-oxo-3,3a,4,5,5a,5b,6,7,7a,8,9,10,11,11a,11b,12,13,13a-octadecahydro-2H-cyclopenta[a]chrysen-9-yl)oxy)carbonyl)-2,2-dimethylcyclobutane-1-carboxylic acid], for which the IC50 under setting [1] is under 5 nM and the IC50 under setting [2] is under 30 nM.

For `CC(C)C1=C2[C@H]3CC[C@@H]4[C@@]5(C)CC[C@H](OC(=O)[C@H]6C[C@@H](C(=O)O)C6(C)C)C(C)(C)[C@@H]5CC[C@@]4(C)[C@]3(C)CC[C@@]2(NC(=O)N(CCN2CCCCC2)Cc2ccc(Cl)cc2)CC1=O` [Example 11, (1R,3S)-3-((((3aR,5aR,5bR,7aR,9S,11aR,11bR,13aS)-3a-(3-(4-chlorobenzyl)-3-(2-(piperidin-1-yl)ethyl)ureido)-1-isopropyl-5a,5b,8,8,11a-pentamethyl-2-oxo-3,3a,4,5,5a,5b,6,7,7a,8,9,10,11,11a,11b,12,13,13a-octadecahydro-2H-cyclopenta[a]chrysen-9-yl)oxy)carbonyl)-2,2-dimethylcyclobutane-1-carboxylic acid hydrochloride], the IC50 runs as follows: under setting [1], under 5 nM; under setting [2], 30 to 50 nM.

In the case of `CC(C)C1=C2[C@H]3CC[C@@H]4[C@@]5(C)CC[C@H](OC(=O)[C@H]6C[C@@H](C(=O)O)C6(C)C)C(C)(C)[C@@H]5CC[C@@]4(C)[C@]3(C)CC[C@@]2(NC(=O)NC(C)(C)c2ccc(Cl)cc2)CC1=O` [Example 5, (1R,3S)-3-((((3aR,5aR,5bR,7aR,9S,11aR,11bR,13aS)-3a-(3-(2-(4-chlorophenyl)propan-2-yl)ureido)-1-isopropyl-5a,5b,8,8,11a-pentamethyl-2-oxo-3,3a,4,5,5a,5b,6,7,7a,8,9,10,11,11a,11b,12,13,13a-octadecahydro-2H-cyclopenta[a]chrysen-9-yl)oxy)carbonyl)-2,2-dimethylcyclobutane-1-carboxylic acid], the 50% inhibitory concentration (IC50) runs as follows: under setting [1], under 5 nM; under setting [2], under 30 nM.

For `CC(C)C1=C2[C@H]3CC[C@@H]4[C@@]5(C)CC[C@H](OC(=O)[C@H]6C[C@@H](C(=O)O)C6(C)C)C(C)(C)[C@@H]5CC[C@@]4(C)[C@]3(C)CC[C@@]2(NC(=O)N2CCC[C@H]2CN2CCCC2)CC1=O` [Example 13, (1R,3S)-3-((((3aR,5aR,5bR,7aR,9S,11aR,11bR,13aS)-1-isopropyl-5a,5b,8,8,11a-pentamethyl-2-oxo-3a-((S)-2-(pyrrolidin-1-ylmethyl)pyrrolidine-1-carboxamido)-3,3a,4,5,5a,5b,6,7,7a,8,9,10,11,11a,11b,12,13,13a-octadecahydro-2H-cyclopenta[a]chrysen-9-yl)oxy)carbonyl)-2,2-dimethylcyclobutane-1-carboxylic acid], the IC50 is under 5 nM under setting [1] and over 50 nM under setting [2].

In the case of `CC(C)C1=C2[C@H]3CC[C@@H]4[C@@]5(C)CC[C@H](OC(=O)[C@H]6C[C@@H](C(=O)O)C6(C)C)C(C)(C)[C@@H]5CC[C@@]4(C)[C@]3(C)CC[C@@]2(NC(=O)N2CCC[C@H]2c2ncc(-c3ccccc3)[nH]2)CC1=O` [Example 3, (1R,3S)-3-((((3aR,5aR,5bR,7aR,9S,11aR,11bR,13aS)-1-isopropyl-5a,5b,8,8,11a-pentamethyl-2-oxo-3a-((S)-2-(5-phenyl-1H-imidazol-2-yl)pyrrolidine-1-carboxamido)-3,3a,4,5,5a,5b,6,7,7a,8,9,10,11,11a,11b,12,13,13a-octadecahydro-2H-cyclopenta[a]chrysen-9-yl)oxy)carbonyl)-2,2-dimethylcyclobutane-1-carboxylic acid], the IC50 was 5.01 to 10 nM under setting [1] and 30 to 50 nM under setting [2].

`CC(C)C1=C2[C@H]3CC[C@@H]4[C@@]5(C)CC[C@H](OC(=O)[C@H]6C[C@@H](C(=O)O)C6(C)C)C(C)(C)[C@@H]5CC[C@@]4(C)[C@]3(C)CC[C@@]2(NC(=O)N(CCN(C)C)Cc2ccc(Cl)cc2)CC1=O` [Example 1, (1R,3S)-3-((((3aR,5aR,5bR,7aR,9S,11aR,11bR,13aS)-3a-(3-(4-chlorobenzyl)-3-(2-(dimethylamino)ethyl)ureido)-1-isopropyl-5a,5b,8,8,11a-pentamethyl-2-oxo-3,3a,4,5,5a,5b,6,7,7a,8,9,10,11,11a,11b,12,13,13a-octadecahydro-2H-cyclopenta[a]chrysen-9-yl)oxy)carbonyl)-2,2-dimethylcyclobutane-1-carboxylic acid hydrochloride]: the IC50 was under 5 nM under setting [1] and over 50 nM under setting [2].
